Each structure is given as a SMILES string.

The test system of the assay is CFTR mediated chloride current in Primary CF airway epithelial cells. The experiment in a line: Equivalent current assay in primary CF airway epithelial cells (NAUC). The conditions noted are these: 24 h treatment, stimulated with forskolin and VX770, normalized to positive control 3 μM VX809. The assay is classed as cell-based. As to the method: Primary CF airway epithelial cells were obtained from the UNC Cystic Fibrosis Tissue Procurement and Cell Culture Core. The cells are grown at 37° C. in a Heracell 150i incubator using growth media (BEGM, Fischer). Cells were then transferred to differentiation media (ALI, UNC) for a minimum of 4 weeks on coated Costar snapwells. Two days before the Ussing assay the mucus on the apical surface of the cells was aspirated after incubating with 200 μL of differentiation Media for at least thirty (30) minutes. One day before the Ussing assay test compounds were added to the basolateral surface of the cells at various test concentrations dissolved in DMSO. Duplicate wells were prepared giving a n=3 or n=4 protocol.
Cells were treated for 24 hours with various combinations and concentrations of the test articles, reference standard (3 μM VX809, positive control). Compounds stock solutions were prepared in DMSO and diluted 1/1000 into ALI media to their final assay concentration. Cells were treated with combination solutions (2 mL of each dilution) and incubated at 37° C. for 24 h.
For the equivalent current assay, cells on four Transwell (24-well) plates were treated. Each Transwell plate was filled with 200 μl of HBS on the apical surface and 2 ml on the basolateral surface. Plates were placed horizontally in a heated mount at 37° C., and equilibrated for several minutes. Resting current was measured for 15 min and then blocked by the apical addition of 5 μM benzamil. After 20 min, 10 μM forskolin and 1 μM VX770 were added to both the apical and basolateral side to stimulate CFTR. An increase in chloride current is seen as an upward deflection of the trace. After another 30 min, CFTR-172 (a CFTR inhibitor, 2 μM) and/or bumetanide (20 μM) was added to block CFTR mediated chloride current.
The raw data, current vs. time for the Ussing chamber (sampling interval: 10 s) and voltage vs. time and resistance vs. time for the equivalent current assay (sampling interval: 5 minutes) were transferred to Excel (Microsoft Office Professional, version 14.0.7106.5003) for analysis. CFTR specific current was measured as the average amplitude of the increase in current elicited upon addition forskolin and ending upon addition of the CFTR channel specific blocker CFTR-172. This average is equivalent to the sum of the average forskolin activated and the average VX770-potentiated currents. The average current measured in vehicle (0.1% DMSO) treated cells, Iv, was subtracted from the current for the test article, ITA, or from the corrector reference standard VX809 (3 μM ISTD. For replicate measurements, the average vehicle subtracted response for the test article, was normalized to the average vehicle subtracted […] response of the reference corrector VX809 (3 μM). INSC=(ITA−IV)(ave)/(ISTD−IV)(ave) (Equation 1)
A second endpoint, for the equivalent current assay, evaluated was NAUC, the normalized area under the curve (AUC) measuring the response after addition of forskolin and VX770 to the time point right before the addition of the CFTR inhibitor. The AUC is effectively the average response multiplied by the duration of the response. The AUC of the test article, AUCTA was then corrected by subtracting the average vehicle response, AUCV,ave over the same time range, and normalized as for the inhibitor-sensitive current to the difference of the corrector reference standard VX809 (3 μM VX809r,ave and the vehicle response: NAUCTA=[AUCTA−AUCV,ave]/[AUCVx809r,ave−AUCV,ave](Equation 2).
The normalized value for DMSO is 0.0 and for VX-809 alone is 1.0. Combinations of compounds with VX-809 that give normalized values greater than 1.0 show activity in the combination assay. A value of 2 means the test compound doubles the effect to VX-809 alone.
Experiments were run with a minimum of n=4 replicates per concentration. […]

In the case of `CN1CCN(C(=O)CCNC(=O)c2cc(-c3ccc(F)cc3)on2)CC1` [Example 1, 5-(4-fluorophenyl)-N-(3-(4-methylpiperazin-1-yl)-3-oxopropyl)isoxazole-3-carboxamide], the “NAUC (normalized area under the curve), Test Conc 3 uM” value was “++ (NAUC “++” refers to an observed NAUC 170-140% of positive control)” and the “NAUC (normalized area under the curve), Test Conc 10 uM” value is given as “+++ (NAUC “+++” refers to an observed NAUC >170% of positive control)”.

As to `O=C(NCCC(=O)N1CCCC1)c1cc(-c2ccc(F)cc2)on1` [Example 2], the “NAUC (normalized area under the curve), Test Conc 3 uM” value is “++ (NAUC “++” refers to an observed NAUC 170-140% of positive control)” and the “NAUC (normalized area under the curve), Test Conc 10 uM” value is recorded as “+++ (NAUC “+++” refers to an observed NAUC >170% of positive control)”.

For the compound `CCN(CC)C(=O)CCNC(=O)c1cc(-c2ccc(F)cc2)on1` [Example 3], the “NAUC (normalized area under the curve), Test Conc 3 uM” value is reported as “++ (NAUC “++” refers to an observed NAUC 170-140% of positive control)” and the “NAUC (normalized area under the curve), Test Conc 10 uM” value is reported as “+++ (NAUC “+++” refers to an observed NAUC >170% of positive control)”.

`O=C(NCCC(=O)N1CCCCC1)c1cc(-c2ccc(F)cc2)on1` [Example 4]: the “NAUC (normalized area under the curve), Test Conc 3 uM” value is listed as “++ (NAUC “++” refers to an observed NAUC 170-140% of positive control)” and the “NAUC (normalized area under the curve), Test Conc 10 uM” value is “+++ (NAUC “+++” refers to an observed NAUC >170% of positive control)”.

In the case of `O=C(CCNC(=O)c1cc(-c2ccc(F)cc2)on1)NCC1CC1` [Example 6], the “NAUC (normalized area under the curve), Test Conc 3 uM” value is recorded as “++ (NAUC “++” refers to an observed NAUC 170-140% of positive control)” and the “NAUC (normalized area under the curve), Test Conc 10 uM” value is “+++ (NAUC “+++” refers to an observed NAUC >170% of positive control)”.

Regarding `O=C(NCCC(=O)N1CCC1)c1cc(-c2ccc(F)cc2)on1` [Example 8], the “NAUC (normalized area under the curve), Test Conc 3 uM” value was “+++ (NAUC “+++” refers to an observed NAUC >170% of positive control)” and the “NAUC (normalized area under the curve), Test Conc 10 uM” value is “+++ (NAUC “+++” refers to an observed NAUC >170% of positive control)”.

In the case of `O=C(NCCC(=O)N1CCOCC1)c1cc(-c2ccc(F)cc2)on1` [Example 10], the “NAUC (normalized area under the curve), Test Conc 3 uM” value is “++ (NAUC “++” refers to an observed NAUC 170-140% of positive control)” and the “NAUC (normalized area under the curve), Test Conc 10 uM” value is “+++ (NAUC “+++” refers to an observed NAUC >170% of positive control)”.

For the compound `O=C(CCNC(=O)c1cc(-c2ccc(F)cc2)on1)Nc1ccccn1` [Example 13], the “NAUC (normalized area under the curve), Test Conc 3 uM” value is “+ (NAUC “+” refers to an observed NAUC <140% of positive control)” and the “NAUC (normalized area under the curve), Test Conc 10 uM” value is “++ (NAUC “++” refers to an observed NAUC 170-140% of positive control)”.

Turning to `CN1CCN(C(=O)CCCNC(=O)c2cc(-c3ccc(F)cc3)on2)CC1` [Example 14, 5-(4-fluorophenyl)-N-(4-(4-methylpiperazin-1-yl)-4-oxobutyl)isoxazole-3-carboxamide], the “NAUC (normalized area under the curve), Test Conc 3 uM” value is listed as “+++ (NAUC “+++” refers to an observed NAUC >170% of positive control)” and the “NAUC (normalized area under the curve), Test Conc 10 uM” value was “+++ (NAUC “+++” refers to an observed NAUC >170% of positive control)”.

For `CN1CCN(C(=O)CCCCNC(=O)c2cc(-c3ccc(F)cc3)on2)CC1` [Example 15, 5-(4-fluorophenyl)-N-(5-(4-methylpiperazin-1-yl)-5-oxopentyl)isoxazole-3-carboxamide], the “NAUC (normalized area under the curve), Test Conc 3 uM” value is “+++ (NAUC “+++” refers to an observed NAUC >170% of positive control)” and the “NAUC (normalized area under the curve), Test Conc 10 uM” value was “+++ (NAUC “+++” refers to an observed NAUC >170% of positive control)”.

Take `O=C(NCCCCC(=O)N1CCC1)c1cc(-c2ccc(F)cc2)on1` [Example 16, N-(5-(azetidin-1-yl)-5-oxopentyl)-5-(4-fluorophenyl)isoxazole-3-carboxamide]: the “NAUC (normalized area under the curve), Test Conc 3 uM” value is reported as “+++ (NAUC “+++” refers to an observed NAUC >170% of positive control)” and the “NAUC (normalized area under the curve), Test Conc 10 uM” value is “+++ (NAUC “+++” refers to an observed NAUC >170% of positive control)”.

Regarding `O=C(NCCc1ccccc1)c1cc(-c2ccc(F)cc2)on1` [Example 17, 5-(4-fluorophenyl)-N-phenethylisoxazole-3-carboxamide], the “NAUC (normalized area under the curve), Test Conc 3 uM” value is “+ (NAUC “+” refers to an observed NAUC <140% of positive control)” and the “NAUC (normalized area under the curve), Test Conc 10 uM” value is “++ (NAUC “++” refers to an observed NAUC 170-140% of positive control)”.

`NS(=O)(=O)c1ccc(CNC(=O)c2cc(-c3ccc(F)cc3)on2)cc1` [Example 18]: the “NAUC (normalized area under the curve), Test Conc 3 uM” value is reported as “++ (NAUC “++” refers to an observed NAUC 170-140% of positive control)” and the “NAUC (normalized area under the curve), Test Conc 10 uM” value is given as “++ (NAUC “++” refers to an observed NAUC 170-140% of positive control)”.

Regarding `CC(C)Oc1ccc(CNC(=O)c2cc(-c3ccc(F)cc3)on2)cc1` [Example 19], the “NAUC (normalized area under the curve), Test Conc 3 uM” value is “+ (NAUC “+” refers to an observed NAUC <140% of positive control)” and the “NAUC (normalized area under the curve), Test Conc 10 uM” value is on record as “+ (NAUC “+” refers to an observed NAUC <140% of positive control)”.

As for `CC(C)OCCNC(=O)c1cc(-c2ccc(F)cc2)on1` [Example 20], the “NAUC (normalized area under the curve), Test Conc 3 uM” value is given as “+ (NAUC “+” refers to an observed NAUC <140% of positive control)” and the “NAUC (normalized area under the curve), Test Conc 10 uM” value is on record as “++ (NAUC “++” refers to an observed NAUC 170-140% of positive control)”.

For `O=C(NC[C@@H]1CCCO1)c1cc(-c2ccc(F)cc2)on1` [Example 21], the “NAUC (normalized area under the curve), Test Conc 3 uM” value is listed as “+ (NAUC “+” refers to an observed NAUC <140% of positive control)” and the “NAUC (normalized area under the curve), Test Conc 10 uM” value was “++ (NAUC “++” refers to an observed NAUC 170-140% of positive control)”.

For `CC(C)CNC(=O)c1cc(-c2ccc(F)cc2)on1` [Example 22], the “NAUC (normalized area under the curve), Test Conc 3 uM” value was “+ (NAUC “+” refers to an observed NAUC <140% of positive control)” and the “NAUC (normalized area under the curve), Test Conc 10 uM” value is “++ (NAUC “++” refers to an observed NAUC 170-140% of positive control)”.

As to `O=C(NCc1cccnc1)c1cc(-c2ccc(F)cc2)on1` [Example 24], the “NAUC (normalized area under the curve), Test Conc 3 uM” value is given as “++ (NAUC “++” refers to an observed NAUC 170-140% of positive control)” and the “NAUC (normalized area under the curve), Test Conc 10 uM” value was “++ (NAUC “++” refers to an observed NAUC 170-140% of positive control)”.

For `O=C(NCc1cccc(F)c1F)c1cc(-c2ccc(F)cc2)on1` [Example 25], the “NAUC (normalized area under the curve), Test Conc 3 uM” value was “+ (NAUC “+” refers to an observed NAUC <140% of positive control)” and the “NAUC (normalized area under the curve), Test Conc 10 uM” value is recorded as “+ (NAUC “+” refers to an observed NAUC <140% of positive control)”.

`CCNC(=O)c1cc(-c2ccc(F)cc2)on1` [Example 26]: the “NAUC (normalized area under the curve), Test Conc 3 uM” value is “+++ (NAUC “+++” refers to an observed NAUC >170% of positive control)” and the “NAUC (normalized area under the curve), Test Conc 10 uM” value is recorded as “+++ (NAUC “+++” refers to an observed NAUC >170% of positive control)”.

For `O=C(NCc1ccccc1)c1cc(-c2ccc(F)cc2)on1` [Example 27], the “NAUC (normalized area under the curve), Test Conc 3 uM” value was “++ (NAUC “++” refers to an observed NAUC 170-140% of positive control)” and the “NAUC (normalized area under the curve), Test Conc 10 uM” value is on record as “++ (NAUC “++” refers to an observed NAUC 170-140% of positive control)”.

As to `N#Cc1ccc(CNC(=O)c2cc(-c3ccc(F)cc3)on2)cc1` [Example 28], the “NAUC (normalized area under the curve), Test Conc 3 uM” value is “+ (NAUC “+” refers to an observed NAUC <140% of positive control)” and the “NAUC (normalized area under the curve), Test Conc 10 uM” value is given as “+ (NAUC “+” refers to an observed NAUC <140% of positive control)”.

Regarding `O=C(NC1CCCC1)c1cc(-c2ccc(F)cc2)on1` [Example 29], the “NAUC (normalized area under the curve), Test Conc 3 uM” value is given as “++ (NAUC “++” refers to an observed NAUC 170-140% of positive control)” and the “NAUC (normalized area under the curve), Test Conc 10 uM” value was “++ (NAUC “++” refers to an observed NAUC 170-140% of positive control)”.

The record behind these values is patent US9855249B2, “Isoxazole compounds and methods for the treatment of cystic fibrosis” (FLATLEY DISCOVERY LAB, LLC, priority 2014, dated 2018).
